This is an account of results in patent EP0678295B1, “Manufacturing process of phospholipideactive principle complexes useful for the liposome preparation” (Citernesi, Ugo, priority 1994, dated 1995).

This data set in a line: Measurement of entrapment efficiency (ultracentrifugation of liposomes, HPLC determination of Vitamin A in both phases). It counts as physicochemical. As to conditions: liposomes from gelified phospholipid /Vitamin A complex (Example 1A) plus physiologic solution, 325 nm. How it is done: Measurement of entrapment efficiency.
A gelified phospholipid /Vitamin A complex was prepared according to the procedure described in Example 1A.
Liposomes were then obtained by adding a physiologic solution to the complex and subsequent stirring of the mixture.
The obtained liposomes have been subjected to ultracentrifugation in order to separate the liposome phase from the water phase. In both phases Vitamin A was determined as follows.
Phospholipid /vitamin A pellet resulting from the ultracentrifugation was dissolved in hexane, filtered under vacuum (0.2 .10^5 Pa) and determined by HPLC (high performance liquid chromatography) using two different HPLC columns: • 1) Column: Chromsep Nucleosil C18 100 mm x 3 ID Eluent: methanol Flow: 1 ml/min. Detecting wl: 325 nm • 2) Column: Pertsil 10 ODS Eluent: Methanol/water (90/10) Flow: 1ml/min. Detecting wl: 325 nm
The water phase coming from the ultracentrifugation was analyzed for its vitamin A content using the same HPLC procedure and columns.

`CC(=O)OC/C=C(C)/C=C/C=C(C)/C=C/C1=C(C)CCCC1(C)C` [Vitamin A, Vitamin A acetate]: under “pellet after ultracentrifugation dissolved in hexane”, the “Vitamin A detected in the liposome phase” value is reported as “almost all”. Besides, for the setting “water phase after ultracentrifugation”, the “Vitamin A detected in the aqueous phase” value is given as “No Vitamin A was detected”.
